In publication PMC4643908 (2015):

Legend:
[1] = system: V. vulnificus add adenine riboswitch (with expression platform segment) (RNA, riboswitch) GGGAACCGAGUAGGUUCGCUUCAUAUAAUCCUAAUGAUAUGGUUUGGGAGUUUCUACCAAGAGCCUUAAACUCUUGAUUAUGAAGUCUGUCGCUUUAUCCGAAAUUUUAUAAAGAGAAGACUCAUGAAUGGGAUCCGAGUAGGAUCCUGAAAAAAACAACAACAAC; test: 1M7 SHAPE mutate-and-map chemical mapping; details: 50 mM KCl, 25 mM K3PO4, 10 mM MgCl2; pH 6.5; room temperature; 5 mM adenine; protections in aptamer
[2] = system: Tebowned (RNA, riboswitch) GGACGAUUGAGGAUAUUUAGACAUAGAGAAGGCAAUGGAGAGAGAGCUUUUUAAAGAAACAACAACAACAAC; test: chemical mapping; details: mapping pattern changes on FMN

| binding [1] | binding [2] | Structure (SMILES) |
| --- | --- | --- |
| yes | – | Nc1ncnc2[nH]cnc12 |
| – | yes | Cc1cc2nc3c(=O)[nH]c(=O)nc-3n(C[C@H](O)[C@H](O)[C@H](O)COP(=O)(O)O)c2cc1C |
